Earlier results as cited in patent publication US6482309B1, “Electrolytic generation of nascent iodine as a method of treatment and for the prevention of infections associated with medical implant devices” (OxiBio, Inc., priority 1999, dated 2002).

Tested on: bacteria and viruses

Compound: II [free iodine, iodine]
- level of free iodine required for efficient microbial killing: ~2 ppm
